Read-outs that look alike come from different tables or passages of the source.
Legend:
Assay in all cases: Glasshouse assay for herbicidal activity (pre- and post-emergence), percentage phytotoxicity
Type in all cases: in vivo
Avena fatua (AVEFA) = details: Avena fatua
Method: (§1) Test—Glasshouse Assay for Herbicidal Activity
(§2) Seeds of a variety of monocotyledonous and dicotyledonous test plants are sown in standard soil in pots. The plants are cultivated for one day (for pre-emergence (PRE)) or for about 12 days (for post-emergence (POST)) under controlled conditions in a glasshouse (warm climate species at 24/18° C., cool climate species at 20/16° C., both at day/night; 16 hours light; 65% humidity).
(§3) The test plants are then grown on, in a glasshouse (greenhouse) under controlled conditions (warm climate species at 24/18° C., cool climate species at 20/16° C., both at day/night; 16 hours light; 65% humidity) and are watered twice daily. 15 days after application of the test herbicide (15 DAA) (for post-emergence), and 20 days after application of the test herbicide (20 DAA) (for pre-emergence), the test plants are evaluated visually, and an assessed percentage phytotoxicity score is given for each herbicidal application on each plant species (with 100%=total damage to plant; 0%=no damage to plant).
(§4) The plant species tested are as follows: Alopecurus myosuroides (ALOMY), Avena fatua (AVEFA), Lolium perenne (LOLPE), Echinochloa crus-galli (ECHCG).

[1] = system: Echinochloa crus-galli (ECHCG); details: Echinochloa crus-galli
Method: as §1, §2, §3, §4

Lolium perenne (LOLPE) = details: Lolium perenne
Method: as §1, §2, §3, §4

[2] = system: Alopecurus myosuroides (ALOMY); details: Alopecurus myosuroides
Method: as §1, §2, §3, §4

[3] = post-emergence, 360 h, POST-emergence, rate 250 g/ha, visual score 15 DAA (100%=total damage, 0%=no damage), read-out: Post-emergence herbicidal activity (percentage phytotoxicity) AVEFA POST
[4] = pre-emergence, 480 h, PRE-emergence, rate 250 g/ha, visual score 20 DAA (100%=total damage, 0%=no damage), read-out: Pre-emergence herbicidal activity (percentage phytotoxicity) AVEFA PRE
[5] = post-emergence, 360 h, POST-emergence, rate 250 g/ha, visual score 15 DAA (100%=total damage, 0%=no damage), read-out: Post-emergence herbicidal activity (percentage phytotoxicity) ECHCG POST
[6] = pre-emergence, 480 h, PRE-emergence, rate 250 g/ha, visual score 20 DAA (100%=total damage, 0%=no damage), read-out: Pre-emergence herbicidal activity (percentage phytotoxicity) ECHCG PRE
[7] = post-emergence, 360 h, POST-emergence, rate 250 g/ha, visual score 15 DAA (100%=total damage, 0%=no damage), read-out: Post-emergence herbicidal activity (percentage phytotoxicity) LOLPE POST
[8] = pre-emergence, 480 h, PRE-emergence, rate 250 g/ha, visual score 20 DAA (100%=total damage, 0%=no damage), read-out: Pre-emergence herbicidal activity (percentage phytotoxicity) LOLPE PRE
[9] = post-emergence, 360 h, POST-emergence, rate 250 g/ha, visual score 15 DAA (100%=total damage, 0%=no damage), read-out: Post-emergence herbicidal activity (percentage phytotoxicity) ALOMY POST
[10] = pre-emergence, 480 h, PRE-emergence, rate 250 g/ha, visual score 20 DAA (100%=total damage, 0%=no damage), read-out: Pre-emergence herbicidal activity (percentage phytotoxicity) ALOMY PRE
[11] = post-emergence, 360 h, 250 g/ha, post-emergence, 15 DAA, visual assessment (100%=total damage, 0%=no damage), read-out: Post-emergence herbicidal activity (percentage phytotoxicity) AVEFA POST
[12] = pre-emergence, 480 h, 250 g/ha, pre-emergence, 20 DAA, visual assessment (100%=total damage, 0%=no damage), read-out: Pre-emergence herbicidal activity (percentage phytotoxicity) AVEFA PRE
[13] = post-emergence, 360 h, 250 g/ha, post-emergence, 15 DAA, visual assessment (100%=total damage, 0%=no damage), read-out: Post-emergence herbicidal activity (percentage phytotoxicity) ECHCG POST
[14] = pre-emergence, 480 h, 250 g/ha, pre-emergence, 20 DAA, visual assessment (100%=total damage, 0%=no damage), read-out: Pre-emergence herbicidal activity (percentage phytotoxicity) ECHCG PRE
[15] = post-emergence, 360 h, 250 g/ha, post-emergence, 15 DAA, visual assessment (100%=total damage, 0%=no damage), read-out: Post-emergence herbicidal activity (percentage phytotoxicity) LOLPE POST
[16] = pre-emergence, 480 h, 250 g/ha, pre-emergence, 20 DAA, visual assessment (100%=total damage, 0%=no damage), read-out: Pre-emergence herbicidal activity (percentage phytotoxicity) LOLPE PRE
[17] = post-emergence, 360 h, 250 g/ha, post-emergence, 15 DAA, visual assessment (100%=total damage, 0%=no damage), read-out: Post-emergence herbicidal activity (percentage phytotoxicity) ALOMY POST
[18] = pre-emergence, 480 h, 250 g/ha, pre-emergence, 20 DAA, visual assessment (100%=total damage, 0%=no damage), read-out: Pre-emergence herbicidal activity (percentage phytotoxicity) ALOMY PRE

| SMILES | pest or weed control at 250 g/ha (Avena fatua (AVEFA); [3]) [%] | pest or weed control at 250 g/ha (Avena fatua (AVEFA); [4]) [%] | pest or weed control at 250 g/ha [1, 5] [%] | pest or weed control at 250 g/ha [1, 6] [%] | pest or weed control at 250 g/ha (Lolium perenne (LOLPE); [7]) [%] | pest or weed control at 250 g/ha (Lolium perenne (LOLPE); [8]) [%] | pest or weed control at 250 g/ha [2, 9] [%] | pest or weed control at 250 g/ha [2, 10] [%] | pest or weed control at 250 g/ha (Avena fatua (AVEFA); [11]) [%] | pest or weed control at 250 g/ha (Avena fatua (AVEFA); [12]) [%] | pest or weed control at 250 g/ha [1, 13] [%] | pest or weed control at 250 g/ha [1, 14] [%] | pest or weed control at 250 g/ha (Lolium perenne (LOLPE); [15]) [%] | pest or weed control at 250 g/ha (Lolium perenne (LOLPE); [16]) [%] | pest or weed control at 250 g/ha [2, 17] [%] | pest or weed control at 250 g/ha [2, 18] [%] | other results |
| --- | --- | --- | --- | --- | --- | --- | --- | --- | --- | --- | --- | --- | --- | --- | --- | --- | --- |
| C/C=C/CNC(=O)CC1CC(=O)C(c2c(C)cc(-c3ncc(F)cc3F)cc2C)C1=O (centres unmarked) [Compound B291] | 100 | 90 | 100 | 100 | 90 | 100 | 90 | 100 |  |  |  |  |  |  |  |  |  |
| Cc1cc(C)c(C2C(=O)CC(CC(=O)NCC3(F)COC3)C2=O)c(C)c1 (centres unmarked) [Compound A180] |  |  |  |  |  |  |  |  |  |  |  |  |  |  |  |  | pest or weed control at 250 g/ha (Avena fatua (AVEFA); post-emergence, 360 h, post-emergence, 250 g/ha, 15 DAA, visual score (100%=total damage; 0%=no damage), read-out: AVEFA POST herbicidal activity (percentage phytotoxicity)): 70%; pest or weed control at 250 g/ha (Avena fatua (AVEFA); pre-emergence, 480 h, pre-emergence, 250 g/ha, 20 DAA, visual score (100%=total damage; 0%=no damage), read-out: AVEFA PRE herbicidal activity (percentage phytotoxicity)): 0%; pest or weed control at 250 g/ha ([1]; post-emergence, 360 h, post-emergence, 250 g/ha, 15 DAA, visual score (100%=total damage; 0%=no damage), read-out: ECHCG POST herbicidal activity (percentage phytotoxicity)): 70%; pest or weed control at 250 g/ha ([1]; pre-emergence, 480 h, pre-emergence, 250 g/ha, 20 DAA, visual score (100%=total damage; 0%=no damage), read-out: ECHCG PRE herbicidal activity (percentage phytotoxicity)): 20%; pest or weed control at 250 g/ha (Lolium perenne (LOLPE); post-emergence, 360 h, post-emergence, 250 g/ha, 15 DAA, visual score (100%=total damage; 0%=no damage), read-out: LOLPE POST herbicidal activity (percentage phytotoxicity)): 30%; pest or weed control at 250 g/ha (Lolium perenne (LOLPE); pre-emergence, 480 h, pre-emergence, 250 g/ha, 20 DAA, visual score (100%=total damage; 0%=no damage), read-out: LOLPE PRE herbicidal activity (percentage phytotoxicity)): 0%; pest or weed control at 250 g/ha ([2]; post-emergence, 360 h, post-emergence, 250 g/ha, 15 DAA, visual score (100%=total damage; 0%=no damage), read-out: ALOMY POST herbicidal activity (percentage phytotoxicity)): 70%; pest or weed control at 250 g/ha ([2]; pre-emergence, 480 h, pre-emergence, 250 g/ha, 20 DAA, visual score (100%=total damage; 0%=no damage), read-out: ALOMY PRE herbicidal activity (percentage phytotoxicity)): 40% |
| CCc1cc(OCC(F)(F)F)cc(C)c1C1C(=O)CC(CC(=O)NCc2cccc(Cl)c2)C1=O (centres unmarked) [Compound B261] | 100 | 80 | 100 | 90 | 100 | 90 | 100 | 80 |  |  |  |  |  |  |  |  |  |
| C/C=C/CNC(=O)CC1CC(=O)C(c2c(C)cc(-c3ncc(F)cn3)cc2C)C1=O (centres unmarked) [Compound B303] | 100 | 80 | 100 | 100 | 100 | 80 | 100 | 90 |  |  |  |  |  |  |  |  |  |
| Cc1cc(C)c(C2C(=O)CC(CC(=O)NC3CC3C(F)(F)F)C2=O)c(C)c1 (centres unmarked) [Compound B97] |  |  |  |  |  |  |  |  | 50 | 0 | 80 | 90 | 70 | 80 | 70 | 80 |  |
| C#CCNC(=O)CC1CC(=O)C(c2c(C)cc(/C=C/C)cc2C)C1=O (centres unmarked) [Compound B174] | 90 | 70 | 100 | 90 | 90 | 100 | 100 | 100 |  |  |  |  |  |  |  |  |  |
| Cc1cc(C)c(C2C(=O)CC(CC(=O)NC3(C4CC4)CC3)C2=O)c(C)c1 (centres unmarked) [Compound B78] |  |  |  |  |  |  |  |  | 80 | 40 | 90 | 90 | 80 | 90 | 80 | 80 |  |
| C=CC(C)NC(=O)CC1CC(=O)C(c2c(C)cc(-c3ccc(Cl)cn3)cc2C)C1=O (centres unmarked) [Compound B365] |  |  |  |  |  |  |  |  |  |  |  |  |  |  |  |  | pest or weed control at 250 g/ha (Avena fatua (AVEFA); post-emergence, 360 h, Rate 250 g/ha, post-emergence, visual assessment 15 DAA, 100%=total damage, 0%=no damage, read-out: Post-emergence herbicidal activity (percentage phytotoxicity) AVEFA POST): 90%; pest or weed control at 250 g/ha (Avena fatua (AVEFA); pre-emergence, 480 h, Rate 250 g/ha, pre-emergence, visual assessment 20 DAA, 100%=total damage, 0%=no damage, read-out: Pre-emergence herbicidal activity (percentage phytotoxicity) AVEFA PRE): 90%; pest or weed control at 250 g/ha ([1]; post-emergence, 360 h, Rate 250 g/ha, post-emergence, visual assessment 15 DAA, 100%=total damage, 0%=no damage, read-out: Post-emergence herbicidal activity (percentage phytotoxicity) ECHCG POST): 100%; pest or weed control at 250 g/ha ([1]; pre-emergence, 480 h, Rate 250 g/ha, pre-emergence, visual assessment 20 DAA, 100%=total damage, 0%=no damage, read-out: Pre-emergence herbicidal activity (percentage phytotoxicity) ECHCG PRE): 100%; pest or weed control at 250 g/ha (Lolium perenne (LOLPE); post-emergence, 360 h, Rate 250 g/ha, post-emergence, visual assessment 15 DAA, 100%=total damage, 0%=no damage, read-out: Post-emergence herbicidal activity (percentage phytotoxicity) LOLPE POST): 90%; pest or weed control at 250 g/ha (Lolium perenne (LOLPE); pre-emergence, 480 h, Rate 250 g/ha, pre-emergence, visual assessment 20 DAA, 100%=total damage, 0%=no damage, read-out: Pre-emergence herbicidal activity (percentage phytotoxicity) LOLPE PRE): 100%; pest or weed control at 250 g/ha ([2]; post-emergence, 360 h, Rate 250 g/ha, post-emergence, visual assessment 15 DAA, 100%=total damage, 0%=no damage, read-out: Post-emergence herbicidal activity (percentage phytotoxicity) ALOMY POST): 90%; pest or weed control at 250 g/ha ([2]; pre-emergence, 480 h, Rate 250 g/ha, pre-emergence, visual assessment 20 DAA, 100%=total damage, 0%=no damage, read-out: Pre-emergence herbicidal activity (percentage phytotoxicity) ALOMY PRE): 100% |
| C/C=C/c1cc(C)c(C2C(=O)CC(CC(=O)N(C)CC)C2=O)c(CC)c1 (centres unmarked) [Compound B194] | 100 | 80 | 100 | 90 | 100 | 100 | 100 | 100 |  |  |  |  |  |  |  |  |  |
| C#Cc1cccc(CNC(=O)CC2CC(=O)C(c3c(C)cc(C)cc3C)C2=O)c1 (centres unmarked) [Compound B86] |  |  |  |  |  |  |  |  | 100 | 60 | 90 | 80 | 100 | 90 | 70 | 70 |  |
